Assay results: US3963756A, “Derivatives of 6-methyl-2H-pyran-2,4(3H)-dione” (Zaidan Hojin Biseibutsu Kagaku Kenkyu Kai, priority 1972, dated 1976)

Assays:
[1] = target: T1, Dopamine β-Hydroxylase (Bos taurus, UniProt P15101); experiment: Inhibition of dopamine β-hydroxylase (DH); assay type: biochemical; conditions: 200 mcg/cc
T1 sequence (P15101 1-610): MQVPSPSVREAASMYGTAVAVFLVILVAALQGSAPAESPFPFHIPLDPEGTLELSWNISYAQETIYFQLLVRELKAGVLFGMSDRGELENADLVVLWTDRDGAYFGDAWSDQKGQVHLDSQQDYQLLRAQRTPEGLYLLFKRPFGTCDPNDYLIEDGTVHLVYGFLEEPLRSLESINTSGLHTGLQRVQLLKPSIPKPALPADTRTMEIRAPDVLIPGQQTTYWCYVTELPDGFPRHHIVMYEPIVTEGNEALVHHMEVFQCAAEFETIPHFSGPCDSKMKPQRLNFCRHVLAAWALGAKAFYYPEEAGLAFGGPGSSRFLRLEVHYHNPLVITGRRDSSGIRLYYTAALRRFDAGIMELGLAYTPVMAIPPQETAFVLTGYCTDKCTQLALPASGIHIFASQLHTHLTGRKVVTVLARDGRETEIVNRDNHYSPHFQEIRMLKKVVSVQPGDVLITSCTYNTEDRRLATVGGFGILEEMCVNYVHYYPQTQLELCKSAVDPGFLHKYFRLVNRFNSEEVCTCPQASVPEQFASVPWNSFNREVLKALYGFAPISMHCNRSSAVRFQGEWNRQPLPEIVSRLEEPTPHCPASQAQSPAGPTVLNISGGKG
Source text: (§1) The new compounds of the present invention have been examined for their biological activities, and their inhibition to tyrosine hydroxylase and dopamine β-hydroxylase are summarized below in Table 2. The details of the test methods used and the close relationship and reliable correlation of biological activities between in vitro and in vivo test results are well documented in the literature, e.g. J. Antibiot. 23: 514 (1970); Biochem. Pharmacol., 19: 35 (1970); and J. Am. Chem. Soc. 93: 1285 (1971). […] The effects of this compound on tyrosine hydroxylase and dopamine β-hydroxylase were also tested by the methods described in the Journal of Antibiotics 23:514 (1970) and Biochem. Pharmacol. 19:35 (1970), respectively.
(§2) The chemical structure of the products [I], solvent for hydrogenation and solvent for recrystallization are summarised in Table 1, and the yields of the products [I] are also shown in Table 1 together with their melting points, elemental analysis data, Inhibition (%) of tyrosine hydroxylase (TH) and Inhibition (%) to dopamine β-hydroxylase (DH) at different concentrations of the products [I] of 100 mcg/cc and 200 mcg/cc.

[2] = target: T2, Tyrosine Hydroxylase (Bos taurus, UniProt P17289); experiment: Inhibition of tyrosine hydroxylase (TH); assay type: biochemical; conditions: for inhibition at 100 µg/mL: 100 mcg/cc; for inhibition at 200 µg/mL: 200 mcg/cc
T2 sequence (P17289 1-491): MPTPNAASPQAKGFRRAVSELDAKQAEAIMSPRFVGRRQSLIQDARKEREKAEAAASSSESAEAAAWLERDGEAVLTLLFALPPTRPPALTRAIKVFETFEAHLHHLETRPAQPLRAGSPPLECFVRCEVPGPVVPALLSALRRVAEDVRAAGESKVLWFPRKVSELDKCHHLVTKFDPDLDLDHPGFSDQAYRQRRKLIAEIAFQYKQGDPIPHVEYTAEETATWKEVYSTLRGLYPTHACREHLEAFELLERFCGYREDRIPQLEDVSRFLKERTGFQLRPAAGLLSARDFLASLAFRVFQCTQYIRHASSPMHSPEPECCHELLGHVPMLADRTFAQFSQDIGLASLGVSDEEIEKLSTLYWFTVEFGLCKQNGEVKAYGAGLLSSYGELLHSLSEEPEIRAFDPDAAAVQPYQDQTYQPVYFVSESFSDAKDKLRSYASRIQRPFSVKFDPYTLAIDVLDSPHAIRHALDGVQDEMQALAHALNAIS
Source text: as §1, §2

[3] = Lowering of blood pressure (general statements); parameters: species or system mammals; conditions: in vivo

SMILES	inhibition at 200 µg/mL [1]	inhibition at 100 µg/mL [2]	inhibition at 200 µg/mL [2]	blood pressure reducing (hypotensive) activity, in words [3]
CC1=CC(=O)C(C(=O)CCc2ccc[nH]2)C(=O)O1 (stereo not shown) [Example 39]	25.1%	30.9%		
CC1=CC(=O)C(C(=O)CCc2ccc(C)cc2)C(=O)O1 (stereo not shown) [Example 29, 3-(4-methylhydrocinnamoyl)-6-methyl-2H-pyran-2,4(3H)-dione]	85%	52.5%	52.6%	
CC1=CC(=O)C(C(=O)CCc2ccc(Cl)cc2)C(=O)O1 (stereo not shown) [Example 5]	84.4%	66%	64.8%	
CC1=CC(=O)C(C(=O)CCc2ccc(F)cc2)C(=O)O1 (stereo not shown) [Example 31]	42%	60.1%		
CC1=CC(=O)C(C(=O)CCc2ccc(O)cc2)C(=O)O1 (stereo not shown) [Example 7]	77.7%	65.2%	70.6%	
CCOc1cc(CCC(=O)C2C(=O)C=C(C)OC2=O)ccc1O (stereo not shown) [Example 22]	61.5%	22.7%	24.4%	
COc1cc(CCC(=O)C2C(=O)C=C(C)OC2=O)ccc1O (stereo not shown) [Example 19]	29.6%	14.6%	26%	
COc1ccc(CCC(=O)C2C(=O)C=C(C)OC2=O)cc1 (stereo not shown) [Example 1, 3-(4-methoxyhydrocinnamoyl)-6-methyl-2H-pyran-2,4(3H)-dione]	35%	40.7%	47.9%	
COc1ccc(CCC(=O)C2C(=O)C=C(C)OC2=O)cc1OC (stereo not shown) [3-(3,4-dimethoxyhydrocinnamoyl)-6-methyl-2H-pyran-2,4(3H)-dione, reference compound]	32.5%	61.3%	72.5%	active in reducing blood pressure
CC1=CC(=O)C(C(=O)CCc2ccc(Cl)c(Cl)c2)C(=O)O1 (stereo not shown) [Example 6]	90.4%	54.6%	61%	
CC1=CC(=O)C(C(=O)CCc2c(O)ccc3ccccc23)C(=O)O1 (stereo not shown) [Example 37]	44.7%	41.8%	57.2%	
CC1=CC(=O)C(C(=O)CCc2cccc(Cl)c2)C(=O)O1 (stereo not shown) [Example 10]	95%	12.7%	26.5%	
COc1ccc(CCC(=O)C2C(=O)C=C(C)OC2=O)cc1O (stereo not shown) [Example 2, 3-(3-hydroxy-4-methoxyhydrocinnamoyl)-6-methyl-2H-pyran-2,4(3H)-dione]	67%	80.8%	93.9%	
CC1=CC(=O)C(C(=O)CCc2ccccc2O)C(=O)O1 (stereo not shown) [Example 13]	52.5%	44.4%	59.5%	
COc1cc(CCC(=O)C2C(=O)C=C(C)OC2=O)cc(OC)c1O (stereo not shown) [Example 35]	43.6%	45.8%		
CC1=CC(=O)C(C(=O)CCc2c(C)cc(C)cc2C)C(=O)O1 (stereo not shown) [Example 23]	28.9%	8.7%		
CC1=CC(=O)C(C(=O)CCc2ccc(C(F)(F)F)cc2)C(=O)O1 (stereo not shown) [Example 32]	88%	50.4%		
COc1ccccc1CCC(=O)C1C(=O)C=C(C)OC1=O (stereo not shown) [Example 18]	98.3%	32%		
CC1=CC(=O)C(C(=O)CCc2cccc(Br)c2)C(=O)O1 (stereo not shown) [Example 26]	97%	11.3%	19.8%	
CC1=CC(=O)C(C(=O)CCc2cccc(O)c2)C(=O)O1 (stereo not shown) [Example 4]	81.7%	64.7%	67.2%	
